Data taken from patent publication US9725445B2, “Cycloalkyl nitrile pyrazolo pyridones as Janus kinase inhibitors” (Merck Sharp & Dohme Corp., priority 2013, dated 2017).
pIC50: −log10 of the molar value.

Tests used:
JAK2 = JAK2 (Homo sapiens (Human), UniProt O60674); test: Jak biochemical HTRF assay, JAK2; conditions: HTRF biochemical assay, recombinant GST-tagged catalytic domain; read-out: JAK2 IC50
JAK1 = JAK1 (Homo sapiens (Human), UniProt P23458); test: Jak biochemical HTRF assay, JAK1; conditions: HTRF biochemical assay, recombinant GST-tagged catalytic domain; read-out: JAK1 IC50
Sequence of JAK1 (P23458 875-1153): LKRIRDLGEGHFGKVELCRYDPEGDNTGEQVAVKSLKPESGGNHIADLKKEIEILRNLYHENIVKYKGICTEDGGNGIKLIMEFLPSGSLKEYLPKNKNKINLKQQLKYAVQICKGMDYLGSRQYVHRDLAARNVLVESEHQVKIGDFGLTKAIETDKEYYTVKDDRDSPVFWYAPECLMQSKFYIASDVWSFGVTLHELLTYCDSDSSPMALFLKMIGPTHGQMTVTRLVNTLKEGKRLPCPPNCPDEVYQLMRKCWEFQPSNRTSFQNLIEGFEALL

Sequence of JAK2 (O60674 849-1124): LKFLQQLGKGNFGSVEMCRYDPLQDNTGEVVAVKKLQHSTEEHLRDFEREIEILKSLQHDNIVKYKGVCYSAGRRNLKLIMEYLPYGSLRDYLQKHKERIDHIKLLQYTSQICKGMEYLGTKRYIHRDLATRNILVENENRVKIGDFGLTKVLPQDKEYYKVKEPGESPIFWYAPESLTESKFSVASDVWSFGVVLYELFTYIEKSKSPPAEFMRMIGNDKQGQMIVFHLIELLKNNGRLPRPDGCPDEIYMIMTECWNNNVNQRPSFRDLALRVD

pIC50 (JAK2)	pIC50 (JAK1)	Structure (SMILES)
9.40	10.09	N#C[C@H]1CCCCC[C@@H]1n1nc(Nc2ccc3c(c2)CN(C2CCOCC2)S3(=O)=O)c2c(=O)[nH]ccc21 (single isomer, unassigned) [Example 15-54, (1S,2S or 1R,2R)-2-(3-{[1,1-dioxido-2-(tetrahydro-2H-pyran-4-yl)-2,3-dihydro-1,2-benzisothiazol-5-yl]amino}-4-oxo-4,5-dihydro-1H-pyrazolo[4,3-c]pyridin-1-yl)cycloheptanecarbonitrile]
8.51	8.74	CC(C)C(c1ccc(Nc2nn([C@H]3CCCC[C@@H]3C#N)c3cc[nH]c(=O)c23)cc1)n1cc(C(=O)OC(C)(C)C)nn1 (single isomer, unassigned) [Example 15-58, tert-butyl 1-{(1R or 1S)-1-[4-({1-[(1S,2S)-2-cyanocyclohexyl]-4-oxo-4,5-dihydro-1H-pyrazolo[4,3-c]pyridin-3-yl}amino)phenyl]-2-methylpropyl}-1H-1,2,3-triazole-4-carboxylate]
8.72	9.89	N#C[C@H]1CCCC[C@@H]1n1nc(Nc2ccc(-c3ncco3)cc2)c2c(=O)[nH]ccc21 [Example 15-1, (1S,2S)-2-(3-{[4-(1,3-Oxazol-2-yl)phenyl]amino}-4-oxo-4,5-dihydro-1H-pyrazolo[4,3-c]pyridin-1-yl)cyclohexanecarbonitrile]
8.47	9.33	N#C[C@H]1CCCC[C@@H]1n1nc(Nc2ccc3c(c2)CC(C(=O)O)C3)c2c(=O)[nH]ccc21 (stereo partly drawn) [Example 13-1, 5-((1-((1S,2S)-2-Cyanocyclohexyl)-4-oxo-4,5-dihydro-1H-pyrazolo[4,3-c]pyridin-3-yl)amino)-2,3-dihydro-1H-indene-2-carboxylic acid]
9.20	9.60	N#C[C@H]1CCCC[C@@H]1n1nc(Nc2ccc3c(c2)CNC3C(F)F)c2c(=O)[nH]ccc21 (single isomer, unassigned) [Example 15-28, (1S,2S)-2-(3-{[(1S or 1R)-1-(difluoromethyl)-2,3-dihydro-1H-isoindol-5-yl]amino}-4-oxo-4,5-dihydro-1H-pyrazolo[4,3-c]pyridin-1-yl)cyclohexanecarbonitrile]
7.85	7.72	Cc1cc(Nc2nn([C@H]3CCCCC[C@@H]3C#N)c3cc[nH]c(=O)c23)ccc1C(=O)N1CCCC1 (single isomer, unassigned) [Example 15-47, (1S,2S or 1R,2R)-2-(3-{[3-methyl-4-(pyrrolidin-1-ylcarbonyl)phenyl]amino}-4-oxo-4,5-dihydro-1H-pyrazolo[4,3-c]pyridin-1-yl)cycloheptanecarbonitrile]
9.08	9.89	CC(O)(c1ccc(Nc2nn([C@H]3CCCC[C@@H]3C#N)c3cc[nH]c(=O)c23)cc1)C(F)(F)F (single isomer, unassigned) [Example 15-11, (1S,2S)-2-[4-oxo-3-({4-[(1R or 1S)-2,2,2-trifluoro-1-hydroxy-1-methylethyl]phenyl}amino)-4,5-dihydro-1H-pyrazolo[4,3-c]pyridin-1-yl]cyclohexanecarbonitrile]

The remaining lines, values behind:

Structure (SMILES)	pIC50 (JAK2)	pIC50 (JAK1)
N#C[C@@H]1C[C@H](N2CCC2)CC[C@H]1n1nc(Nc2ccc(C(F)(F)F)cc2)c2c(=O)[nH]ccc21 [Example 5-10, (1R,2R,5R)-5-(azetidin-1-yl)-2-(4-oxo-3-((4-(trifluoromethyl)phenyl)amino)-4,5-dihydro-1H-pyrazolo[4,3-c]pyridin-1-yl)cyclohexanecarbonitrile]	6.03	7.43
N#C[C@H]1CCCC[C@@H]1n1nc(Nc2ccc([C@H](N)C(F)(F)F)cc2)c2c(=O)[nH]ccc21 [Example 7-4, (1S,2S)-2-[3-({4-[(1S)-1-amino-2,2,2-trifluoroethyl]phenyl}amino)-4-oxo-4,5-dihydro-1H-pyrazolo[4,3-c]pyridin-1-yl]cyclohexanecarbonitrile]	9.39	9.96
CC1(C)C(=O)c2cc(Nc3nn([C@H]4CCCC[C@@H]4C#N)c4cc[nH]c(=O)c34)ccc2S1(=O)=O [Example 3-171, (1S,2S)-2-{3-[(2,2-dimethyl-1,1-dioxido-3-oxo-2,3-dihydro-1-benzothiophen-5-yl)amino]-4-oxo-4,5-dihydro-1H-pyrazolo[4,3-c]pyridin-1-yl}cyclohexanecarbonitrile]	8.26	8.94
N#C[C@H]1CCCC[C@@H]1n1nc(Nc2ccc3c(c2)CNS3(=O)=O)c2c(=O)[nH]ccc21 [Example 3-54, (1S,2S)-2-{3-[(1,1-dioxido-2,3-dihydro-1,2-benzisothiazol-5-yl)amino]-4-oxo-4,5-dihydro-1H-pyrazolo[4,3-c]pyridin-1-yl}cyclohexanecarbonitrile]	9.21	10.29
N#C[C@H]1CCCC[C@@H]1n1nc(Nc2ccc3c(c2)CN(CC2CCCC2)S3(=O)=O)c2c(=O)[nH]ccc21 [Example 3-65, (1S,2S)-2-(3-{[2-(cyclopentylmethyl)-1,1-dioxido-2,3-dihydro-1,2-benzisothiazol-5-yl]amino}-4-oxo-4,5-dihydro-1H-pyrazolo[4,3-c]pyridin-1-yl)cyclohexanecarbonitrile]	9.19	9.92
N#C[C@H]1CCCC[C@@H]1n1nc(Nc2ccc3c(c2)CN(CC(F)(F)F)C3)c2c(=O)[nH]ccc21 [Example 3-61, (1S,2S)-2-(4-oxo-3-{[2-(2,2,2-trifluoroethyl)-2,3-dihydro-1H-isoindol-5-yl]amino}-4,5-dihydro-1H-pyrazolo[4,3-c]pyridin-1-yl}cyclohexanecarbonitrile]	8.96	9.26
CC(O)(CO)c1cccc(Nc2nn([C@H]3CCCC[C@@H]3C#N)c3cc[nH]c(=O)c23)c1 (stereo partly drawn) [Example 11-1, (1S,2S)-2-(3-((3-(1,2-Dihydroxypropan-2-yl)phenyl)amino)-4-oxo-4,5-dihydro-1H-pyrazolo[4,3-c]pyridin-1-yl)cyclohexanecarbonitrile]	8.40	8.60
N#C[C@H]1CCCC[C@@H]1n1nc(Nc2ccc(C3CCCN3)cc2)c2c(=O)[nH]ccc21 (single isomer, unassigned) [Example 3-71, (1S,2S)-2-[4-oxo-3-({4-[(2S or 2R)-pyrrolidin-2-yl]phenyl}amino)-4,5-dihydro-1H-pyrazolo[4,3-c]pyridin-1-yl]cyclohexanecarbonitrile]	9.27	9.57
C[C@H](NC1CCC(n2nc(Nc3ccc(Cl)cc3)c3c(=O)[nH]ccc32)C(C#N)C1)C1CC1 (stereo in doubt) [Example 4-3, (1R,2R,5R)-2-(3-((4-Chlorophenyl)amino)-4-oxo-4,5-dihydro-1H-pyrazolo[4,3-c]pyridin-1-yl)-5-(((S)-1-cyclopropylethyl)amino)cyclohexanecarbonitrile]	7.89	9.52
N#C[C@H]1CCCC[C@@H]1n1nc(Nc2ccc(C(O)C(F)(F)F)cc2)c2c(=O)[nH]ccc21 (single isomer, unassigned) [Example 3-8]	9.09	9.89
CC(C)(C)NS(=O)(=O)c1ccc(Nc2nn([C@H]3CCC[C@@H]3C#N)c3cc[nH]c(=O)c23)cc1 [Example 3-107, N-tert-butyl-4-({1-[(1S,2S)-2-cyanocyclopentyl]-4-oxo-4,5-dihydro-1H-pyrazolo[4,3-c]pyridin-3-yl}amino)benzenesulfonamide]	9.32	9.66
CC(C)[C@@H](C)N1Cc2ccc(Nc3nn([C@H]4CCCC[C@@H]4C#N)c4cc[nH]c(=O)c34)cc2C1 [Example 3-149, (1S,2S)-2-[3-({2-[(1R)-1,2-dimethylpropyl]-2,3-dihydro-1H-isoindol-5-yl}amino)-4-oxo-4,5-dihydro-1H-pyrazolo[4,3-c]pyridin-1-yl]cyclohexanecarbonitrile]	9.21	9.32
N#C[C@H]1CCCC[C@@H]1n1nc(Nc2cccc(CNCC(F)(F)F)c2)c2c(=O)[nH]ccc21 [Example 3-39, (1S,2S)-2-{4-oxo-3-[(3-{[(2,2,2-trifluoroethyl)amino]methyl}phenyl)amino]-4,5-dihydro-1H-pyrazolo[4,3-c]pyridin-1-yl}cyclohexanecarbonitrile]	8.74	9.19
N#C[C@H]1CCC[C@@H]1n1nc(Nc2ccc(C(N)C(F)(F)F)cc2)c2c(=O)[nH]ccc21 (single isomer, unassigned) [Example 3-136, (1S,2S)-2-[3-({4-[(1R or 1S)-1-amino-2,2,2-trifluoroethyl]phenyl}amino)-4-oxo-4,5-dihydro-1H-pyrazolo[4,3-c]pyridin-1-yl]cyclopentanecarbonitrile]	9.15	9.55
N#C[C@H]1CCCC[C@@H]1n1nc(Nc2cccc([C@H](N)C(F)(F)F)c2)c2c(=O)[nH]ccc21 [Example 7-1, (1S,2S)-2-(3-((3-((S)-1-Amino-2,2,2-trifluoroethyl)phenyl)amino)-4-oxo-4,5-dihydro-H-pyrazolo[4,3-c]pyridin-1-yl)cyclohexanecarbonitrileecarbonitrile]	8.82	9.21
CCNC(c1ccc(Nc2nn([C@H]3CCC[C@@H]3C#N)c3cc[nH]c(=O)c23)cc1)C(F)(F)F (single isomer, unassigned) [Example 3-114, (1S,2S)-2-[3-({4-[(1S or 1R)-1-(ethylamino)-2,2,2-trifluoroethyl]phenyl}amino)-4-oxo-4,5-dihydro-1H-pyrazolo[4,3-c]pyridin-1-yl]cyclopentanecarbonitrile]	9.55	9.72
COCCn1cc(-c2ccc(Nc3nn([C@H]4CCCC[C@@H]4C#N)c4cc[nH]c(=O)c34)cc2)cn1 [Example 3-145, (1S,2S)-2-[3-({4-[1-(2-methoxyethyl)-1H-pyrazol-4-yl]phenyl}amino)-4-oxo-4,5-dihydro-1H-pyrazolo[4,3-c]pyridin-1-yl]cyclohexanecarbonitrile]	8.74	9.92
